We go through 52 molecules from patent publication US8802720B2, “Acylamino-substituted fused cyclopentanecarboxylic acid derivatives and their use as pharmaceuticals” (SANOFI, priority 2008, dated 2014).

This assay concerns the target human Edg-2 receptor (LPA1 receptor) (Homo sapiens, UniProt Q92633). The assay can be described thus: Edg-2 receptor inhibition by FLIPR calcium fluorescence measurement (LPA-mediated calcium liberation). In kind it is cell-based. The following applies: CHO cells stably overexpressing human Edg-2 receptor; LPA 18:1 100 nM; fluo-4 fluorescence; triplicate; read-out: Inhibitory concentrations IC50 for inhibition of the Edg-2 receptor. The method, boiled down:
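CHO cells stably overexpressing human Edg-2 were fluo-4 loaded and pre-incubated ~5 min with compound (≤0.3% DMSO) in HBSS/HEPES/probenecid, pH 7.5. Then LPA 18:1 at 100 nM final was added. Peak calcium fluorescence over ~3 min, baseline-corrected versus DMSO, gave % inhibition in triplicate and IC50.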

human Edg-2 receptor (LPA1 receptor), sequence (Q92633 whole entry): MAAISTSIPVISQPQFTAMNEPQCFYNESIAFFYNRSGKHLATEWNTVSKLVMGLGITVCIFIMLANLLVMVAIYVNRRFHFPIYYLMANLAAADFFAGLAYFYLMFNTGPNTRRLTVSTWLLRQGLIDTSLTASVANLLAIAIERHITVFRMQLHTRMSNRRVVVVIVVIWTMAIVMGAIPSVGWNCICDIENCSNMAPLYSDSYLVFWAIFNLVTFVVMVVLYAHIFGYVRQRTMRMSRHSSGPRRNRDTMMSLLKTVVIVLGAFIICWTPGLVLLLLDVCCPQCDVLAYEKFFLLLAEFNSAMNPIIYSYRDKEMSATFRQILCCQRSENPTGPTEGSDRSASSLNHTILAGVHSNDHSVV

For the molecule `COc1ccc(C(=O)NC2(C(=O)O)Cc3ccccc3C2)cc1Cc1ccc(C)cc1` [Example 245, 2-[4-Methoxy-3-(4-methyl-benzyl)-benzoylamino]-indane-2-carboxylic acid], the IC50 is < 100 nM. The figure for `COc1ccc(C(=O)NC2(C(=O)O)Cc3ccccc3C2)cc1OCCc1cccc(C#N)c1` [Example 94, 2-{3-[2-(3-Cyano-phenyl)-ethoxy]-4-methoxy-benzoylamino}-indane-2-carboxylic acid] is < 100 nM; for `COc1ccc(C(=O)NC2(C(=O)O)Cc3ccccc3C2)cc1-c1cccc(C#N)c1` [Example 297] it is < 100 nM. For the molecule `COc1ccc(C(=O)NC2(C(=O)O)Cc3ccccc3C2)cc1-c1cc(Cl)cc(C(F)(F)F)c1` [Example 347], the IC50 is < 100 nM. Turning to `COc1ccc(Cl)cc1-c1cc(C(=O)NC2(C(=O)O)Cc3ccccc3C2)ccc1OC` [Example 296], the IC50 was < 100 nM. The value for `COc1ccc(C(=O)NC2(C(=O)O)Cc3ccccc3C2)cc1-c1cccc(SC)c1` [Example 301] was < 100 nM; that for `COc1ccc(C(=O)NC2(C(=O)O)Cc3ccccc3C2)cc1-c1ccc(C(C)(C)C)cc1` [Example 201] was 1000 to 30000 nM; that for `COc1ccc(C(=O)NC2(C(=O)O)Cc3ccccc3C2)cc1OCC(F)(F)c1ccccc1` [Example 213, 2-[3-(2,2-Difluoro-2-phenyl-ethoxy)-4-methoxy-benzoylamino]-indane-2-carboxylic acid] was < 100 nM.

As to `COc1ccc(C(=O)NC2(C(=O)O)Cc3ccccc3C2)cc1OS(=O)(=O)c1ccccc1` [Example 109, 2-(3-Benzenesulfonyloxy-4-methoxy-benzoylamino)-indane-2-carboxylic acid], the IC50 fell in the range of 1000 to 30000 nM. The value for `COc1ccc(C(=O)NC2(C(=O)O)Cc3cccnc3C2)cc1OCCc1cccc(C)c1` (stereo not shown) [Example 101, 6-[4-Methoxy-3-(2-m-tolyl-ethoxy)-benzoylamino]-6,7-dihydro-5H-[1]pyrindine-6-carboxylic acid] was 1000 to 30000 nM; that for `Cc1cccc(CCOc2cc(C(=O)NC3(C(=O)O)Cc4ccccc4C3)ccc2F)c1` [Example 145] was 100 to 1000 nM; that for `CCN(CC)CCCOc1cc(C(=O)NC2(C(=O)O)Cc3ccccc3C2)ccc1OC` [Example 49] was 1000 to 30000 nM. The value for `Cc1cccc(CCOc2cc(C(=O)NC3(C(=O)O)Cc4ccccc4C3)ccc2OCC2CCCCO2)c1` (stereo not shown) [Example 264] was < 100 nM. The figure for `COc1ccc(C(=O)NC2(C(=O)O)Cc3ccccc3C2)cc1OCc1nccc(Cl)c1OC` [Example 52] is 1000 to 30000 nM; for `COc1ccc(C(=O)NC2(C(=O)O)Cc3ccccc3C2)cc1OCCc1cc(C)ccc1F` [Example 20] it is < 100 nM; for `CCCCCOc1ccc(C(=O)NC2(C(=O)O)Cc3ccccc3C2)cc1OCCc1cccc(C)c1` [Example 263] it is < 100 nM. As for `COc1ccc(C(=O)NC2(C(=O)O)Cc3ccccc3C2)cc1-c1cc(C)c(OC)c(C)c1` [Example 294], the IC50 is < 100 nM. For `COc1ncc(C(=O)NC2(C(=O)O)Cc3ccccc3C2)cc1-c1cccc(SC)c1` [Example 222, 2-{[6-Methoxy-5-(3-methylsulfanyl-phenyl)-pyridine-3-carbonyl]-amino}-indane-2-carboxylic acid], the IC50 is < 100 nM. The figure for `COc1ccc(C(=O)NC2(C(=O)O)Cc3ccccc3C2)cc1Oc1ccccc1C` [Example 238, 2-(4-Methoxy-3-o-tolyloxy-benzoylamino)-indane-2-carboxylic acid] is 100 to 1000 nM; for `COc1ccc(C(=O)NC2(C(=O)O)Cc3ccccc3C2)cc1-c1cccc(CN(C)C)c1` [Example 338] it is 1000 to 30000 nM; for `COc1ccc(C(=O)NC2(C(=O)O)Cc3ccccc3C2)cc1CCCc1ccccc1` [Example 169, 2-[4-Methoxy-3-(3-phenyl-propyl)-benzoylamino]-indane-2-carboxylic acid] it is 100 to 1000 nM. The figure for `COc1ccc(C(=O)NC2(C(=O)O)Cc3ccccc3C2)cc1OCCc1cccc(CCN)c1` [Example 246, 2-(3-{2-[3-(2-Amino-ethyl)-phenyl]-ethoxy}-4-methoxy-benzoylamino)-indane-2-carboxylic acid] is 1000 to 30000 nM; for `COc1ccc(C(=O)NC2(C(=O)O)Cc3ccccc3C2)cc1S(=O)(=O)CCc1cccc(C)c1` [Example 183, 2-[4-Methoxy-3-(2-m-tolyl-ethanesulfonyl)-benzoylamino]-indane-2-carboxylic acid] it is 1000 to 30000 nM; for `CCOc1cccc(-c2cc(C(=O)NC3(C(=O)O)Cc4ccccc4C3)ccc2OC)c1` [Example 288] it is 100 to 1000 nM. The figure for `COc1ccc(CCOc2cc(C(=O)NC3(C(=O)O)Cc4ccccc4C3)ccc2OC)cc1` [Example 137] is 1000 to 30000 nM; for `COc1ccc(C(=O)NC2(C(=O)O)Cc3ccccc3C2)cc1OCCCCCC(=O)O` [Example 84] it is 1000 to 30000 nM.

Take `COc1ccc(C(=O)NC2(C(=O)O)Cc3ccccc3C2)cc1OCc1cn(-c2ccccc2)nn1` [Example 79]: the IC50 lay within 1000 to 30000 nM. The figure for `COc1ccc(C(=O)NC2(C(=O)O)Cc3ccccc3C2)cc1-c1cccc(C#N)n1` [Example 283] is 1000 to 30000 nM. The value for `COc1ccc(C(=O)NC2(C(=O)O)Cc3ccccc3C2)cc1OCCc1cc(C(F)(F)F)ccc1F` [Example 154] was < 100 nM; that for `COc1ncc(C(=O)NC2(C(=O)O)Cc3ccccc3C2)cc1OCCc1cc(C)ccc1F` [Example 274, 2-({5-[2-(2-Fluoro-5-methyl-phenyl)-ethoxy]-6-methoxy-pyridine-3-carbonyl}-amino)-indane-2-carboxylic acid] was < 100 nM. The figure for `COc1ccc(C(=O)NC2(C(=O)O)Cc3ccccc3C2)cc1-c1ccc(Cl)c(C(F)(F)F)c1` [Example 310] is 100 to 1000 nM; for `COc1ccc(C(=O)NC2(C(=O)O)Cc3ccccc3C2)cc1-c1cccc(NC(C)=O)c1` [Example 287] it is 100 to 1000 nM; for `COc1ccc(C(=O)NC2(C(=O)O)Cc3ccccc3C2)cc1NCc1ccc(F)cc1` [Example 121, 2-[3-(4-Fluoro-benzylamino)-4-methoxy-benzoylamino]-indane-2-carboxylic acid] it is 1000 to 30000 nM. Turning to `COc1ccc(C(=O)NC2(C(=O)O)Cc3ccccc3C2)cc1-c1ccc(CC(C)C)cc1` [Example 197], the IC50 lay within 1000 to 30000 nM. The figure for `COc1ccnc(COc2cc(C(=O)NC3(C(=O)O)Cc4ccccc4C3)ccc2OC)c1` [Example 55] is 1000 to 30000 nM; for `COc1ccc(C(=O)NC2(C(=O)O)Cc3cccc(C)c3C2)cc1OCCc1cccc(C)c1` (stereo not shown) [Example 216, 2-[4-Methoxy-3-(2-m-tolyl-ethoxy)-benzoylamino]-4-methyl-indane-2-carboxylic acid] it is < 100 nM; for `COc1c(F)cc(C(=O)NC2(C(=O)O)Cc3ccccc3C2)cc1OCCc1cccc(C)c1` [Example 106, 2-[3-Fluoro-4-methoxy-5-(2-m-tolyl-ethoxy)-benzoylamino]-indane-2-carboxylic acid] it is < 100 nM. The figure for `COc1ccc(C(=O)NC2(C(=O)O)CC3CCCCC3C2)cc1OCCc1cccc(C)c1` (stereo not shown) [Example 211, 2-[4-Methoxy-3-(2-m-tolyl-ethoxy)-benzoylamino]-octahydro-indene-2-carboxylic acid] is < 100 nM; for `COc1ccc(C(=O)NC2(C(=O)O)Cc3ccccc3C2)cc1NC(=O)c1cccc(F)c1` [Example 120, 2-[3-[3-fluoro-benzoylamino)-4-methoxy-benzoylamino)-indane-2-carboxylic acid] it is 1000 to 30000 nM; for `COc1ccc(C(=O)NC2(C(=O)O)Cc3ccccc3C2)cc1OCc1cccc(C)c1` [Example 126] it is 1000 to 30000 nM. Take `COc1ccc(C(=O)NC2(C(=O)O)Cc3ccccc3C2)cc1SCCc1cccc(Cl)c1` [Example 181, 2-{3-[2-(3-Chloro-phenyl)-ethylsulfanyl]-4-methoxy-benzoylamino}-indane-2-carboxylic acid]: the IC50 is < 100 nM. The value for `COc1ccc(C(=O)NC2(C(=O)O)Cc3ccccc3C2)cc1OCc1ccc(Cl)cc1` [Example 39] was 1000 to 30000 nM; that for `Cc1cccc(CCOc2cc(C(=O)NC3(C(=O)O)Cc4ccccc4C3)ccc2OCC2CCOC2)c1` (stereo not shown) [Example 258] was < 100 nM. The figure for `COc1ccc(C(=O)NC2(C(=O)O)Cc3ccccc3C2)cc1-c1cc(Cl)ccc1C` [Example 314] is < 100 nM.

In the case of `COc1ccc(C(=O)NC2(C(=O)O)Cc3ccccc3C2)cc1-c1cc(OC(C)C)ccc1F` [Example 336], the IC50 was in the range of 1000 to 30000 nM.

`COc1ccc(C(=O)NC2(C(=O)O)Cc3ccccc3C2)cc1NC(=O)Cc1cccc(Cl)c1` [Example 119]: the IC50 was 1000 to 30000 nM. On to `COc1ccc(C(=O)NC2(C(=O)O)Cc3ccccc3C2)cc1OCC1CC(c2ccccn2)=NO1` (stereo not shown) [Example 90], for which the IC50 lay in the range of 1000 to 30000 nM. Take `COc1ccc(C(=O)NC2(C(=O)O)Cc3ccccc3C2)cc1CCCc1cccc(C)c1` [Example 116, 2-[4-Methoxy-3-(3-m-tolyl-propyl)-benzoylamino]-indane-2-carboxylic acid]: the IC50 is < 100 nM.

`COc1ccc(C(=O)NC2(C(=O)O)Cc3ccccc3C2)cc1-c1ccccc1CN(C)C` [Example 299]: the IC50 is 1000 to 30000 nM. The value for `COc1ccc(C(=O)NC2(C(=O)O)Cc3ccccc3C2)cc1Oc1cccc(C)c1` [Example 239, 2-(4-Methoxy-3-m-tolyloxy-benzoylamino)-indane-2-carboxylic acid] was 1000 to 30000 nM. The value for `Cc1cccc(CCOc2cc(C(=O)NC3(C(=O)O)Cc4ccccc4C3)ccc2OC2CC2)c1` [Example 272, 2-[4-Cyclopropoxy-3-(2-m-tolyl-ethoxy)-benzoylamino]-indane-2-carboxylic acid] was 100 to 1000 nM; that for `CCc1cccc(-c2cc(C(=O)NC3(C(=O)O)Cc4ccccc4C3)ccc2OC)c1` [Example 202] was < 100 nM.
